This note sets out measurements from patent US11261194B2, “Production method of diol” (MITSUBISHI GAS CHEMICAL COMPANY, INC., priority 2017, dated 2022).

Structures are written as SMILES. Values after ≈ are worked out from the molar mass of the structure shown.

One may read the solubility as the concentration that dissolves in the medium under given conditions. A high value points to a readily soluble substance.

A short description of the data set: solubility in water at 25° C. The format is physicochemical.

For `CC1(CO)COC2(CCC3(CC2)OCC(C)(CO)CO3)OC1` (stereo not shown) [compound B], the “solubility in water at 25° C.” value was not above 0.5 mg/mL. Take `O=C1CCC(=O)CC1` [1,4-cyclohexanedione]: the solubility amounted to 750 mg/mL (≈ 6690 mM). Consider `CCC1(CO)COC2(CCC3(CC2)OCC(CC)(CO)CO3)OC1` (stereo not shown) [compound A], for which the “solubility in water at 25° C.” value was not above 0.5 mg/mL. The same measure, in the same setting: under `CC(CO)(CO)CO` [trimethylolethane] stands not below 100 mg/mL.
